The values below come from US12071404B2, “Aza (indole)-, benzothiophene-, and benzofuran-3-sulfonamides” (UCB Pharma GmbH, priority 2016, dated 2024).

This experiment has as its target GPR17 (Homo sapiens, UniProt Q13304). The experiment in a line: Calcium mobilization functional assay (GPR17 Ca2+ assay). The experiment is classed as cell-based. More on the design: host or cells: Flp-In T-REx CHO. As to conditions: CHO hGPR17 cells, inhibition of 50 nM MDL29,951, Calcium 5 dye, FLIPR; read-out: Ca2+ assay pIC50 (converted). How it is done:
Flp-In T-REx CHO cells stably expressing human GPR17 receptor (CHO hGPR17) from Evi Kostenis' lab (Bonn University, Germany) were cultured at 37° C. in a humidified atmosphere of 5% CO2. Cells were grown in DMEM with Nutrient Mixture F-12 supplemented with hygromycin B (500 μg/mL) and blasticidin (30 μg/mL). Expression from the Flp-In locus was induced by treatment with doxycycline (1 μg/mL) for 16-20 h prior assays.
GPR17 is a G-protein coupled receptor. GPR17 activation triggers Gq-type G-protein signaling resulting in endoplasmic reticulum calcium (Ca^2+) stores release in cytosol which can be measured using Calcium 5 dye, a fluorescent indicator dye of cytosolic Ca^2+ levels. All Examples were tested in GPR17 Ca^2+ assay to determine (screen) their GPR17 modulating activity.
CHO hGPR17 were defrosted and seeded at a density of 20,000 cells per well into black 384-well plates with clear bottom. Cells were incubated overnight at 37° C. in a humidified atmosphere of 5% CO2. Sixteen to twenty hours after seeding, CHO hGPR17 were loaded for 60 min with Calcium 5 dye, a cytosolic Ca^2+ indicator fluorescent dye, according to manufacturer's instructions. Fluorescent signal relative to cytosolic Ca^2+ concentration was recorded over time at room temperature in FLIPR Tetra reader. […] Then, 50 nM MDL29,951, a GPR17 agonist, was added to the cells. Inhibitory effects of varying concentrations test compounds were measured and resulting plC50s were determined. […] Analysis and curve fitting were performed in ActivityBase XE using XLfit 4-parameter logistic equation y=A+((B−A)/(1+((C/x)^D))) where A, B, C and D stand for minimum y, maximum y, IC50 and slope, respectively.
The activities of the Example compounds tested are depicted in the table in Section B2B below. The activity ranges A, B and C refer to plC50 values in the Ca^2+ assay as follows: “A”: plC50<7.5, “B”: plC50 7.5<x≤ 8.5, “C”: plC50>8.5
(Calcium flux is commonly read through the fluorescence of an indicator in the cells.)

Sequence of GPR17 (Q13304 whole entry): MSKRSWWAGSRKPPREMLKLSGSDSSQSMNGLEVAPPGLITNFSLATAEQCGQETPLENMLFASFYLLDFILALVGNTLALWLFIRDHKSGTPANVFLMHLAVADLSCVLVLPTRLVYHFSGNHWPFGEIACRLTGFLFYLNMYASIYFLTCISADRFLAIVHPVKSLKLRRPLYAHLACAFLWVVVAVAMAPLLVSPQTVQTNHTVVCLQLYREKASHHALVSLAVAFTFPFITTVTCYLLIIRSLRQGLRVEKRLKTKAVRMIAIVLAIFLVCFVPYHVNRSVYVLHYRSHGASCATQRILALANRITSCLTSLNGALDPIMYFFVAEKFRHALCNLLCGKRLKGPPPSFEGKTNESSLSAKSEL

Regarding `O=S(=O)(Nc1cc(F)cc(F)c1)c1c[nH]c2nc(Br)ccc12` [Compound I-89, 6-bromo-N-(3,5-difluorophenyl)-1H-pyrrolo[2,3-b]pyridine-3-sulfonamide], the IC50 is over 31.6 nM.

`O=S(=O)(Nc1cccc2c1OC(F)(F)O2)c1c[nH]c2ncc(I)cc12` [Compound I-99, N-(2,2-difluoro-1,3-benzodioxol-4-yl)-5-iodo-1H-pyrrolo[2,3-b]pyridine-3-sulfonamide]: the IC50 was over 31.6 nM.

Turning to `O=S(=O)(Nc1ccc(I)cc1F)c1c[nH]c2ncc(I)cc12` [Compound I-101, N-(2-fluoro-4-iodophenyl)-5-iodo-1H-pyrrolo[2,3-b]pyridine-3-sulfonamide], the IC50 is over 31.6 nM.

Consider `O=S(=O)(Nc1cccc2c1OC(F)(F)O2)c1c[nH]c2nc(Br)ccc12` [Compound I-102, 6-bromo-N-(2,2-difluoro-1,3-benzodioxol-4-yl)-1H-pyrrolo[2,3-b]pyridine-3-sulfonamide], for which the IC50 is 3.16 to 31.6 nM.

In the case of `O=S(=O)(Nc1cc(F)c(F)cc1F)c1c[nH]c2ncc(I)cc12` [Compound I-103, 5-iodo-N-(2,4,5-trifluorophenyl)-1H-pyrrolo[2,3-b]pyridine-3-sulfonamide], the IC50 was over 31.6 nM.

With `N#Cc1ccc(NS(=O)(=O)c2c[nH]c3ccccc23)c(F)c1` [Compound I-105, N-(4-cyano-2-fluorophenyl)-1H-indole-3-sulfonamide], the IC50 is over 31.6 nM.

In the case of `O=S(=O)(Nc1cccc2nsnc12)c1c[nH]c2ccccc12` [Compound I-106, N-(2,1,3-benzothiadiazol-4-yl)-1H-indole-3-sulfonamide], the IC50 is over 31.6 nM.

As to `O=S(=O)(Nc1cccc2nsnc12)c1c[nH]c2c(Br)cccc12` [Compound I-111, N-(2,1,3-benzothiadiazol-4-yl)-7-bromo-1H-indole-3-sulfonamide], the IC50 was over 31.6 nM.

In the case of `COc1cccc2c(S(=O)(=O)Nc3ccc(C#N)cc3F)c[nH]c12` [Compound I-115, N-(4-cyano-2-fluorophenyl)-7-methoxy-1H-indole-3-sulfonamide], the IC50 is over 31.6 nM.

With `N#Cc1cc(F)c(NS(=O)(=O)c2c[nH]c3c(Cl)cccc23)cc1F` [Compound I-117, 7-chloro-N-(4-cyano-2,5-difluorophenyl)-1H-indole-3-sulfonamide], the IC50 is over 31.6 nM.

With `N#Cc1ccc(NS(=O)(=O)c2c[nH]c3cc(F)c(F)cc23)cc1` [Compound I-120, N-(4-cyanophenyl)-5,6-difluoro-1H-indole-3-sulfonamide], the IC50 was over 31.6 nM.

On to `Cc1ccc(NS(=O)(=O)c2c[nH]c3c2ccc2ccccc23)c(F)c1` [Compound I-121, N-(2-fluoro-4-methylphenyl)-1H-benzo[g]indole-3-sulfonamide], for which the IC50 was over 31.6 nM.

On to `COCc1ccc(NS(=O)(=O)c2c[nH]c3cc(Cl)ccc23)cc1` [Compound I-122, 6-chloro-N-(4-(methoxymethyl)phenyl)-1H-indole-3-sulfonamide], for which the IC50 is over 31.6 nM.

Regarding `O=S(=O)(Nc1ncccc1F)c1c[nH]c2cc(Cl)ccc12` [Compound I-128, 6-chloro-N-(3-fluoropyridin-2-yl)-1H-indole-3-sulfonamide], the IC50 was over 31.6 nM.

For `O=S(=O)(Nc1ccc(Br)c2c1OC(F)(F)O2)c1c[nH]c2cc(Cl)ccc12` [Compound I-130, N-(7-bromo-2,2-difluoro-1,3-benzodioxol-4-yl)-6-chloro-1H-indole-3-sulfonamide], the IC50 is over 31.6 nM.

Take `O=S(=O)(Nc1c(F)ccc2nsnc12)c1c[nH]c2cc(Cl)ccc12` [Compound I-131, 6-chloro-N-(5-fluoro-2,1,3-benzothiadiazol-4-yl)-1H-indole-3-sulfonamide]: the IC50 is over 31.6 nM.

On to `O=S(=O)(Nc1cc2nsnc2cc1F)c1c[nH]c2nc(Cl)ccc12` [Compound I-144, 6-chloro-N-(6-fluoro-2,1,3-benzothiadiazol-5-yl)-1H-pyrrolo[2,3-b]pyridine-3-sulfonamide], for which the IC50 is 3.16 to 31.6 nM.

For `N#Cc1cc(F)c(NS(=O)(=O)c2c[nH]c3ccccc23)cc1F` [Compound I-145, N-(4-cyano-2,5-difluorophenyl)-1H-indole-3-sulfonamide], the IC50 is 3.16 to 31.6 nM.

For `COCCOc1ccc2c(S(=O)(=O)Nc3cc(F)c(C#N)cc3F)c[nH]c2c1` [Compound I-146, N-(4-cyano-2,5-difluorophenyl)-6-(2-methoxyethoxy)-1H-indole-3-sulfonamide], the IC50 is over 31.6 nM.

Regarding `N#Cc1cc(F)c(NS(=O)(=O)c2c[nH]c3c4c(ccc23)CCC4)cc1F` [Compound I-148, N-(4-cyano-2,5-difluorophenyl)-1,6,7,8-tetrahydrocyclopenta[g]indole-3-sulfonamide], the IC50 is under 3.16 nM.

Take `N#Cc1ccc(NS(=O)(=O)c2c[nH]c3c4c(ccc23)CCC4)cc1F` [Compound I-149, N-(4-cyano-3-fluorophenyl)-1,6,7,8-tetrahydrocyclopenta[g]indole-3-sulfonamide]: the IC50 is 3.16 to 31.6 nM.

Take `O=S(=O)(Nc1cccc2nsnc12)c1c[nH]c2cc(OCc3ccccc3)ccc12` [Compound I-156, N-(2,1,3-benzothiadiazol-4-yl)-6-(benzyloxy)-1H-indole-3-sulfonamide]: the IC50 was over 31.6 nM.

As for `O=S(=O)(Nc1ccc2nsnc2c1)c1c[nH]c2c1ccc1ccccc12` [Compound I-157, N-(2,1,3-benzothiadiazol-5-yl)-1H-benzo[g]indole-3-sulfonamide], the IC50 is 3.16 to 31.6 nM.

As to `O=S(=O)(Nc1ccc2nsnc2c1)c1c[nH]c2c3c(ccc12)CCC3` [Compound I-158, N-(2,1,3-benzothiadiazol-5-yl)-1,6,7,8-tetrahydrocyclopenta[g]indole-3-sulfonamide], the IC50 was over 31.6 nM.

On to `O=S(=O)(Nc1ccc2n[se]nc2c1)c1c[nH]c2cc(Cl)ccc12` [Compound I-161, N-(2,1,3-benzoselenadiazol-5-yl)-6-chloro-1H-indole-3-sulfonamide], for which the IC50 is 3.16 to 31.6 nM.

For `N#Cc1ccc(NS(=O)(=O)c2c[nH]c3cc(Cl)ccc23)c2nsnc12` [Compound I-163, 6-chloro-N-(7-cyano-2,1,3-benzothiadiazol-4-yl)-1H-indole-3-sulfonamide], the IC50 was over 31.6 nM.

Turning to `N#Cc1cc(F)c(NS(=O)(=O)c2c[nH]c3cc(F)cc(F)c23)cc1F` [Compound I-164, N-(4-cyano-2,5-difluorophenyl)-4,6-difluoro-1H-indole-3-sulfonamide], the IC50 was over 31.6 nM.

As for `N#Cc1cc(F)c(NS(=O)(=O)c2c[nH]c3cc(F)ccc23)cc1F` [Compound I-165, N-(4-cyano-2,5-difluorophenyl)-6-fluoro-1H-indole-3-sulfonamide], the IC50 was under 3.16 nM.

As for `O=S(=O)(Nc1cccc2nsnc12)c1c[nH]c2cc(F)cc(F)c12` [Compound I-166, N-(2,1,3-benzothiadiazol-4-yl)-4,6-difluoro-1H-indole-3-sulfonamide], the IC50 was over 31.6 nM.

`N#Cc1cc(F)c(NS(=O)(=O)c2c[nH]c3c(Br)cccc23)cc1F` [Compound I-167, 7-bromo-N-(4-cyano-2,5-difluorophenyl)-1H-indole-3-sulfonamide]: the IC50 was 3.16 to 31.6 nM.

`N#Cc1ccc(NS(=O)(=O)c2c[nH]c3cc(F)cc(F)c23)c(F)c1` [Compound I-168, N-(4-cyano-2-fluorophenyl)-4,6-difluoro-1H-indole-3-sulfonamide]: the IC50 was 3.16 to 31.6 nM.
